# Where “and” joins values, the source holds several entries; their conditions need not be identical. Equal values may be shown once. Read-outs that look alike come from different tables or passages of the source.
# Legend:
# [1] = at 25° C.; cited from earlier work
# [2] = THC on swab and in spit after cannabis inhalation (HPLC-MS); conditions: saliva spit into collection vial after inhaling cannabis; one line per volunteer (V14, V27, V40)
# [3] = cited from earlier work
# [4] = cited from earlier work; remark: listed apart in the source
compound,measurement,setting,value
"CCCCCc1cc(O)c2c(c1)OC(C)(C)[C@@H]1CCC(C)=C[C@@H]21 [THC, Δ^9-tetrahydrocannabinol]",vapor pressure,[1],4.6×10^−8 mmHg
same,THC in Spit,[2],2110.1 ng and 2259.2 ng and 129.6 ng
same,time for the concentration in the body to build up to intoxication levels,[3]; after being consumed,at least 20 minutes
same,psychoactive effects of THC felt after initial consumption,"[3]; after inhalation, estimated",2 to 4 h
same,time THC can be detected in the blood,"[4]; after inhalation, blood analyses by GC-MS or LC-MS",3.5 to 5.5 h
same,time detectable in human samples after use,[4]; chronic users,up to 15 days
same,time detectable in human samples after use,[4]; occasional users,1.3 days
